Assay results taken from publication PMC5218480 (PLoS ONE, 2017).

System: MV-4-11 cells
Assay: Gene expression microarray analysis (Affymetrix PrimeView) and GSEA
Assay type: cell-based, human
Set-up: RFU PODN (11730768_x_at) / Fold change /veh PODN (11730768_x_at) / RFU LINC00158 (11744669_a_at) / Fold change /veh LINC00158 (11744669_a_at) / RFU DUSP10 (11751237_a_at) / Fold change /veh DUSP10 (11751237_a_at) / RFU ID3 (11757404_x_at) / Fold change /veh ID3 (11757404_x_at) / RFU PLEKHG5 (11737974_s_at) / Fold change /veh PLEKHG5 (11737974_s_at) / RFU LRRC4B (11730491_at) / Fold change /veh LRRC4B (11730491_at) / RFU GIMAP4 (11747438_a_at) / Fold change /veh GIMAP4 (11747438_a_at) / RFU KRT8 (11758183_x_at) / Fold change /veh KRT8 (11758183_x_at) / RFU CNN1 (11734310_a_at) / Fold change /veh CNN1 (11734310_a_at) / RFU VPS37D (11726825_at) / Fold change /veh VPS37D (11726825_at) / RFU C10orf10 (11716522_x_at) / Fold change /veh C10orf10 (11716522_x_at) / RFU KIR2DL2 /// KIR2DL4 /// KIR2DL5A /// KIR2DL5B /// KIR2DS1 /// KIR2DS2 /// KIR2DS3 /// KIR2DS4 /// KIR3DL3 /// KIR3DL3 /// KIR3DS1 (11738374_at) / Fold change /veh KIR2DL2 /// KIR2DL4 /// KIR2DL5A /// KIR2DL5B /// KIR2DS1 /// KIR2DS2 /// KIR2DS3 /// KIR2DS4 /// KIR3DL3 /// KIR3DL3 /// KIR3DS1 (11738374_at) / RFU C1QL1 (11718748_at) / Fold change /veh C1QL1 (11718748_at) / RFU TMPRSS4 (11747572_a_at) / Fold change /veh TMPRSS4 (11747572_a_at) / RFU HAMP (11756126_x_at) / Fold change /veh HAMP (11756126_x_at) / RFU RNFT2 (11725882_a_at) / Fold change /veh RNFT2 (11725882_a_at) / RFU NR4A2 (11747474_a_at) / Fold change /veh NR4A2 (11747474_a_at) / RFU ABCC12 (11746883_a_at) / Fold change /veh ABCC12 (11746883_a_at) / RFU TMEM136 (11760407_x_at) / Fold change /veh TMEM136 (11760407_x_at) / RFU CLDN22 /// WWC2 (11732394_at) / Fold change /veh CLDN22 /// WWC2 (11732394_at) / RFU HLA-DPB1 (11760878_x_at) / Fold change /veh HLA-DPB1 (11760878_x_at) / RFU SPINT1 (11716480_a_at) / Fold change /veh SPINT1 (11716480_a_at) / RFU GAP43 (11754022_s_at) / Fold change /veh GAP43 (11754022_s_at) / RFU A4GNT (11735810_at) / Fold change /veh A4GNT (11735810_at) / RFU PRB3 (11715151_x_at) / Fold change /veh PRB3 (11715151_x_at) / RFU TUBB4B (11761932_at) / Fold change /veh TUBB4B (11761932_at) / RFU CAPN14 (11732068_a_at) / Fold change /veh CAPN14 (11732068_a_at) / RFU TMCC2 (11721928_a_at) / Fold change /veh TMCC2 (11721928_a_at) / RFU IRGQ (11745062_a_at) / Fold change /veh IRGQ (11745062_a_at) / RFU FAM174B (11720279_a_at) / Fold change /veh FAM174B (11720279_a_at) / RFU TMPRSS4 (11748680_a_at) / Fold change /veh TMPRSS4 (11748680_a_at) / RFU FAM212B (11763350_a_at) / Fold change /veh FAM212B (11763350_a_at) / RFU PLEKHG5 (11743358_a_at) / Fold change /veh PLEKHG5 (11743358_a_at) / RFU ZSCAN30 (11745921_a_at) / Fold change /veh ZSCAN30 (11745921_a_at) / RFU CMKLR1 (11741424_a_at) / Fold change /veh CMKLR1 (11741424_a_at) / RFU LOC101060620 /// MAPK8IP1 (11723275_at) / Fold change /veh LOC101060620 /// MAPK8IP1 (11723275_at) / RFU SPTSSB (11747773_x_at) / Fold change /veh SPTSSB (11747773_x_at) / RFU PRSS12 (11739890_at) / Fold change /veh PRSS12 (11739890_at) / RFU BIN1 (11741810_x_at) / Fold change /veh BIN1 (11741810_x_at) / RFU WNT11 (11732464_a_at) / Fold change /veh WNT11 (11732464_a_at) / RFU C10orf10 (11716521_a_at) / Fold change /veh C10orf10 (11716521_a_at) / RFU C5orf56 (11738089_at) / Fold change /veh C5orf56 (11738089_at) / RFU CYB561 (11721691_x_at) / Fold change /veh CYB561 (11721691_x_at) / RFU ANKRD19P (11752326_a_at) / Fold change /veh ANKRD19P (11752326_a_at) / RFU OR2T12 /// OR2T33 /// OR2T8 (11738714_s_at) / Fold change /veh OR2T12 /// OR2T33 /// OR2T8 (11738714_s_at) / RFU VCAN (11748164_a_at) / Fold change /veh VCAN (11748164_a_at) / RFU JSRP1 (11732532_at) / Fold change /veh JSRP1 (11732532_at) / RFU KRTAP10-11 (11738290_x_at) / Fold change /veh KRTAP10-11 (11738290_x_at) / RFU MYO3A (11730013_a_at) / Fold change /veh MYO3A (11730013_a_at) / RFU EBF3 (11725865_a_at) / Fold change /veh EBF3 (11725865_a_at) / RFU CAMK2N1 (11719241_x_at) / Fold change /veh CAMK2N1 (11719241_x_at) / RFU C5orf56 (11738088_a_at) / Fold change /veh C5orf56 (11738088_a_at) / RFU OLFML3 (11715873_a_at) / Fold change /veh OLFML3 (11715873_a_at) / RFU LOC100653217 /// NTM (11731650_a_at) / Fold change /veh LOC100653217 /// NTM (11731650_a_at) / RFU MAPK11 (11762145_a_at) / Fold change /veh MAPK11 (11762145_a_at) / RFU FIZ1 (11724087_x_at) / Fold change /veh FIZ1 (11724087_x_at) / RFU OASL (11726364_x_at) / Fold change /veh OASL (11726364_x_at) / RFU SOX15 (11748057_x_at) / Fold change /veh SOX15 (11748057_x_at) / RFU CD79A (11719716_a_at) / Fold change /veh CD79A (11719716_a_at) / RFU HIST1H1D (11736915_at) / Fold change /veh HIST1H1D (11736915_at) / RFU CASKIN2 (11723855_a_at) / Fold change /veh CASKIN2 (11723855_a_at) / RFU LOC730098 (11760151_x_at) / Fold change /veh LOC730098 (11760151_x_at) / RFU OR4N2 (11742367_at) / Fold change /veh OR4N2 (11742367_at) / RFU PRRT2 (11749266_a_at) / Fold change /veh PRRT2 (11749266_a_at) / RFU SNX32 (11753110_a_at) / Fold change /veh SNX32 (11753110_a_at) / RFU CDHR5 (11726645_a_at) / Fold change /veh CDHR5 (11726645_a_at) / RFU RCAN1 (11760418_a_at) / Fold change /veh RCAN1 (11760418_a_at) / RFU FAM167A (11723789_a_at) / Fold change /veh FAM167A (11723789_a_at) / RFU FAM26E (11764081_at) / Fold change /veh FAM26E (11764081_at) / RFU ISYNA1 (11749810_s_at) / Fold change /veh ISYNA1 (11749810_s_at) / RFU ACY1 (11761880_at) / Fold change /veh ACY1 (11761880_at) / RFU 11764098_at / Fold change /veh 11764098_at / RFU SAMD14 (11745864_x_at) / Fold change /veh SAMD14 (11745864_x_at) / RFU NPB (11741838_a_at) / Fold change /veh NPB (11741838_a_at) / RFU TMPRSS6 (11731388_a_at) / Fold change /veh TMPRSS6 (11731388_a_at) / RFU KRTAP10-2 (11738614_at) / Fold change /veh KRTAP10-2 (11738614_at) / RFU ARHGAP8 /// PRR5-ARHGAP8 (11727945_x_at) / Fold change /veh ARHGAP8 /// PRR5-ARHGAP8 (11727945_x_at) / RFU KRTAP5-7 /// NADSYN1 (11734609_at) / Fold change /veh KRTAP5-7 /// NADSYN1 (11734609_at) / RFU RASL12 (11751679_a_at) / Fold change /veh RASL12 (11751679_a_at) / RFU CDKN2B (11736163_a_at) / Fold change /veh CDKN2B (11736163_a_at) / RFU PRF1 (11729649_at) / Fold change /veh PRF1 (11729649_at) / RFU, ZNF638 /// ZNF638-IT1 / Fold change vs veh, ZNF638 /// ZNF638-IT1 / RFU, PANK3 / Fold change vs veh, PANK3 / RFU, SH3YL1 / Fold change vs veh, SH3YL1 / RFU, ZEB2 / Fold change vs veh, ZEB2 / RFU, NRIP1 / Fold change vs veh, NRIP1 / RFU, PTTG1IP / Fold change vs veh, PTTG1IP / RFU, CAPN2 / Fold change vs veh, CAPN2 / RFU, MED14 / Fold change vs veh, MED14 / RFU, SNORA58 / Fold change vs veh, SNORA58 / RFU, C1orf63 / Fold change vs veh, C1orf63 / RFU, LRRFIP1 / Fold change vs veh, LRRFIP1 / RFU, NDUFAF7 / Fold change vs veh, NDUFAF7 / RFU, SLC12A2 / Fold change vs veh, SLC12A2 / RFU, IBTK / Fold change vs veh, IBTK / RFU, ESF1 / Fold change vs veh, ESF1 / Fold change vs veh, TMEM50B / RFU, TAOK1 / Fold change vs veh, TAOK1 / RFU, ACBD3 / Fold change vs veh, ACBD3 / RFU, TMA16 / Fold change vs veh, TMA16 / RFU, RWDD3 / Fold change vs veh, RWDD3 / RFU, BCAT1 / Fold change vs veh, BCAT1 / RFU, EDEM3 / Fold change vs veh, EDEM3 / RFU, TMEM33 / Fold change vs veh, TMEM33 / RFU, WDR75 / Fold change vs veh, WDR75 / RFU, AHCTF1 / Fold change vs veh, AHCTF1 / RFU, TFRC / Fold change vs veh, TFRC / RFU, ZDHHC17 / Fold change vs veh, ZDHHC17 / RFU, NOM1 / Fold change vs veh, NOM1 / RFU, ARL8B / Fold change vs veh, ARL8B / RFU, ZBTB11 / Fold change vs veh, ZBTB11 / RFU, TAMM41 / Fold change vs veh, TAMM41 / RFU, KIAA1704 /// LOC100996395 / Fold change vs veh, KIAA1704 /// LOC100996395 / RFU, ING1 / Fold change vs veh, ING1 / RFU, TRMT61B / Fold change vs veh, TRMT61B / RFU, FUBP3 / Fold change vs veh, FUBP3 / RFU, TP53 / Fold change vs veh, TP53 / RFU, TNKS2 / Fold change vs veh, TNKS2 / RFU, ZFP14 / Fold change vs veh, ZFP14 / RFU, ACTR2 / Fold change vs veh, ACTR2 / RFU, PPP3R1 / Fold change vs veh, PPP3R1 / RFU, PIK3R1 / Fold change vs veh, PIK3R1 / RFU, HNRNPA1 / Fold change vs veh, HNRNPA1 / RFU, RNF170 / Fold change vs veh, RNF170 / RFU, ZNF28 / Fold change vs veh, ZNF28 / RFU, RNGTT / Fold change vs veh, RNGTT / RFU, OGT / Fold change vs veh, OGT / RFU, BRD1 / Fold change vs veh, BRD1 / RFU, MARS / Fold change vs veh, MARS / RFU, ZNF655 / Fold change vs veh, ZNF655 / RFU, FAHD1 / Fold change vs veh, FAHD1 / RFU, BDP1 / Fold change vs veh, BDP1 / RFU, LRRCC1 / Fold change vs veh, LRRCC1 / RFU, ARID1A / Fold change vs veh, ARID1A / RFU, ZNF146 / Fold change vs veh, ZNF146 / RFU, ZNF330 / Fold change vs veh, ZNF330 / RFU, GPN3 / Fold change vs veh, GPN3 / RFU, C9orf123 / Fold change vs veh, C9orf123 / RFU, N4BP2L2 / Fold change vs veh, N4BP2L2 / RFU, ARFIP1 / Fold change vs veh, ARFIP1 / RFU, FAM179B / Fold change vs veh, FAM179B / RFU, BCL10 / Fold change vs veh, BCL10 / RFU, UHRF1BP1L / Fold change vs veh, UHRF1BP1L / RFU, BET1 / Fold change vs veh, BET1 / RFU, CNOT2 / Fold change vs veh, CNOT2 / RFU, ZNF268 / Fold change vs veh, ZNF268 / Fold change vs veh, ZNF507 / RFU, DGCR2 / Fold change vs veh, DGCR2 / RFU, WDSUB1 / Fold change vs veh, WDSUB1 / Fold change vs veh, HSP90B1 /// MIR3652 / RFU, ADSS / Fold change vs veh, ADSS / RFU, GK / Fold change vs veh, GK / RFU, ZNF148 / Fold change vs veh, ZNF148 / RFU, TAF9 / Fold change vs veh, TAF9 / RFU, SLC1A5 / Fold change vs veh, SLC1A5 / RFU, SLMO2 / Fold change vs veh, SLMO2 / RFU, ABCC4 / Fold change vs veh, ABCC4 / RFU, LOC101060439 /// RAP1B / Fold change vs veh, LOC101060439 /// RAP1B / RFU, RFX7 / Fold change vs veh, RFX7 / RFU, GTPBP10 / Fold change vs veh, GTPBP10 / RFU, CNEP1R1 / Fold change vs veh, CNEP1R1 / RFU, BIVM-ERCC5 /// ERCC5 / Fold change vs veh, BIVM-ERCC5 /// ERCC5 / RFU, ILF3 / Fold change vs veh, ILF3 / RFU 11762660_at / Fold change /veh 11762660_at / RFU VCAN (11757783_s_at) / Fold change /veh VCAN (11757783_s_at) / RFU DDX43 (11728927_at) / Fold change /veh DDX43 (11728927_at) / RFU KRT8 (11758188_x_at) / Fold change /veh KRT8 (11758188_x_at) / RFU NKD1 (11759106_at) / Fold change /veh NKD1 (11759106_at) / RFU SRD5A1 (11742802_a_at) / Fold change /veh SRD5A1 (11742802_a_at) / RFU TPSAB1 /// TPSB2 (11721975_s_at) / Fold change /veh TPSAB1 /// TPSB2 (11721975_s_at) / RFU GSTM3 (11746129_a_at) / Fold change /veh GSTM3 (11746129_a_at) / RFU IL23R (11737362_x_at) / Fold change /veh IL23R (11737362_x_at) / RFU TMEM51 (11727254_a_at) / Fold change /veh TMEM51 (11727254_a_at) / RFU PIWIL2 (11732686_x_at) / Fold change /veh PIWIL2 (11732686_x_at) / RFU ORM1 (11744905_x_at) / Fold change /veh ORM1 (11744905_x_at) / RFU CCDC152 (11743942_at) / Fold change /veh CCDC152 (11743942_at) / RFU ECM1 (11717891_a_at) / Fold change /veh ECM1 (11717891_a_at) / RFU IL23R (11748794_a_at) / Fold change /veh IL23R (11748794_a_at) / RFU TNFAIP8L3 (11732012_x_at) / Fold change /veh TNFAIP8L3 (11732012_x_at) / RFU MBOAT4 (11741988_at) / Fold change /veh MBOAT4 (11741988_at) / RFU 11764193_at / Fold change /veh 11764193_at / RFU TMEM53 (11763286_at) / Fold change /veh TMEM53 (11763286_at) / RFU MAGEB2 (11727129_at) / Fold change /veh MAGEB2 (11727129_at) / RFU TMEM200A (11744735_a_at) / Fold change /veh TMEM200A (11744735_a_at) / RFU CCDC152 (11751479_a_at) / Fold change /veh CCDC152 (11751479_a_at) / RFU FAM211A (11726209_a_at) / Fold change /veh FAM211A (11726209_a_at) / RFU RGS16 (11746705_a_at) / Fold change /veh RGS16 (11746705_a_at) / RFU VCAN (11755009_s_at) / Fold change /veh VCAN (11755009_s_at) / RFU RHOB (11743442_s_at) / Fold change /veh RHOB (11743442_s_at) / RFU RGS16 (11720943_a_at) / Fold change /veh RGS16 (11720943_a_at) / RFU RGS16 (11720944_at) / Fold change /veh RGS16 (11720944_at) / RFU, VPS4B / Fold change vs veh, VPS4B / RFU, CREB1 / Fold change vs veh, CREB1 / RFU, DNAJC13 / Fold change vs veh, DNAJC13 / RFU, GNAQ / Fold change vs veh, GNAQ / RFU, CDK5R1 / Fold change vs veh, CDK5R1 / RFU, ZRANB3 / Fold change vs veh, ZRANB3 / RFU, CUL4A / Fold change vs veh, CUL4A / RFU, CCNY / Fold change vs veh, CCNY / RFU, UFL1 / Fold change vs veh, UFL1 / RFU, COG3 / Fold change vs veh, COG3 / RFU, DIAPH2 / Fold change vs veh, DIAPH2 / RFU, SKA2 / Fold change vs veh, SKA2 / RFU, AFF3 / Fold change vs veh, AFF3 / RFU, LMF1 / Fold change vs veh, LMF1 / RFU, IPO11 / Fold change vs veh, IPO11 / RFU, DFFB / Fold change vs veh, DFFB / RFU, FOXP1 / Fold change vs veh, FOXP1 / RFU, CARD8 / Fold change vs veh, CARD8 / RFU, STRN3 / Fold change vs veh, STRN3 / RFU, ADK / Fold change vs veh, ADK / RFU, RASSF2 / Fold change vs veh, RASSF2 / RFU, WIPF1 / Fold change vs veh, WIPF1 / RFU, LARP1B / Fold change vs veh, LARP1B / RFU, RASA1 / Fold change vs veh, RASA1 / RFU, RB1 / Fold change vs veh, RB1 / RFU, PPFIA1 / Fold change vs veh, PPFIA1 / RFU, MAT2A / Fold change vs veh, MAT2A / RFU, CCT5 / Fold change vs veh, CCT5 / RFU, WDR92 / Fold change vs veh, WDR92 / RFU, CUX1 / Fold change vs veh, CUX1 / RFU, TTC7A / Fold change vs veh, TTC7A / RFU, TMEM135 / Fold change vs veh, TMEM135 / RFU, DEPTOR / Fold change vs veh, DEPTOR / RFU, CPM / Fold change vs veh, CPM / RFU, DNAJB6 / Fold change vs veh, DNAJB6 / RFU, CACNA2D3 / Fold change vs veh, CACNA2D3 / RFU, DTX4 / Fold change vs veh, DTX4 / RFU, TFCP2 / Fold change vs veh, TFCP2 / RFU, GMCL1 /// GMCL1P1 / Fold change vs veh, GMCL1 /// GMCL1P1 / RFU, AEBP2 / Fold change vs veh, AEBP2 / RFU, SNHG1 /// SNORD22 /// SNORD25 /// SNORD26 /// SNORD27 /// SNORD28 /// SNORD29 /// SNORD31 / Fold change vs veh, SNHG1 /// SNORD22 /// SNORD25 /// SNORD26 /// SNORD27 /// SNORD28 /// SNORD29 /// SNORD31 / Fold change (Aza/veh), C12orf56 (ProbeSet 11735607_a_at) / Fold change (ACY-1035/veh), C12orf56 (ProbeSet 11735607_a_at) / Fold change (Aza/veh), FGFR1OP (ProbeSet 11751329_s_at) / Fold change (ACY-1035/veh), FGFR1OP (ProbeSet 11751329_s_at) / Fold change (Aza/veh), VPS36 (ProbeSet 11739960_a_at) / Fold change (ACY-1035/veh), VPS36 (ProbeSet 11739960_a_at) / RFU SYPL1 (11715823_x_at) / Fold change /veh SYPL1 (11715823_x_at) / RFU IGFBP7 (11715501_s_at) / Fold change /veh IGFBP7 (11715501_s_at) / RFU REEP3 (11722064_at) / Fold change /veh REEP3 (11722064_at) / RFU IGLL1 (11728026_x_at) / Fold change /veh IGLL1 (11728026_x_at): dose or concentration left out as unconfirmed
Details: MV-4-11 cells, 48 hours

## Nc1ncn([C@@H]2O[C@H](CO)[C@@H](O)[C@H]2O)c(=O)n1 [azacitidine]
  RFU LOC730098 (11760151_x_at): 36.57 RFU
